System in the first assay: not listed separately
Kind of assay: DRUGMATRIX: GABAA, Muscimol, Central radioligand binding (ligand: [3H] Muscimol). The conditions noted are these: Not Active = under 50% inhibition at 10 µM. In kind it is cell membranes, Rattus norvegicus, Wistar, Brain, Membrane.
Sequence of 5-hydroxytryptamine receptor 6 (P50406 whole entry): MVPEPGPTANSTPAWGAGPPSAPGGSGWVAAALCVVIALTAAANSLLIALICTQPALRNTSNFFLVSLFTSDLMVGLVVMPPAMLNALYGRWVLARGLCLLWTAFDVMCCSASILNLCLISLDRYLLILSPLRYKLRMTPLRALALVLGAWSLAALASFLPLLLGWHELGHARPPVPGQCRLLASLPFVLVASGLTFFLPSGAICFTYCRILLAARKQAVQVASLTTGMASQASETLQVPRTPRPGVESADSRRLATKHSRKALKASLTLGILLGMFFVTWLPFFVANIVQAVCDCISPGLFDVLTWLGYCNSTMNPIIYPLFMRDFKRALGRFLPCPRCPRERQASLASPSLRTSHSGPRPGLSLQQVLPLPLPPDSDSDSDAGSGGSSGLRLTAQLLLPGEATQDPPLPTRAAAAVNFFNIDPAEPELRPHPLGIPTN
Sequence of Beta-1 adrenergic receptor (P08588 whole entry): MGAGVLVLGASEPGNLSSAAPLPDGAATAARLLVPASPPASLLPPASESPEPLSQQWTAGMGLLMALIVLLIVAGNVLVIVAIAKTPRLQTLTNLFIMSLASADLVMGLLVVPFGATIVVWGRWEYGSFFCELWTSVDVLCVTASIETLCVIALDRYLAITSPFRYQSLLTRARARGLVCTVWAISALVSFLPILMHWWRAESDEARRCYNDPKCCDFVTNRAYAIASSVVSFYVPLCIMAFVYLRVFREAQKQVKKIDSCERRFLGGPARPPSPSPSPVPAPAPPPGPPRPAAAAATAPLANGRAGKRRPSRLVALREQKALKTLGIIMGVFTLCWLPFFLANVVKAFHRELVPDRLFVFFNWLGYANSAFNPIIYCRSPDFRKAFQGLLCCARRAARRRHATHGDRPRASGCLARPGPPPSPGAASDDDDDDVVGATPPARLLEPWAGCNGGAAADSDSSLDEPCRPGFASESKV
Consider `CC1=C(/C=C/C(C)=C/C=C/C(C)=C\C(=O)O)C(C)(C)CCC1` [ISOTRETINOIN], for which the IC50 entry is reported as “Not Active” and the Ki entry is “Not Active”.

The next assay concerns the target Beta-1 adrenergic receptor (Homo sapiens, UniProt P08588). Kind of assay: DRUGMATRIX: Adrenergic beta1 radioligand binding (ligand: [125I] Cyanopindolol). In kind it is cell membranes, CHO-K1, Membrane. As to conditions: cho-k1; Not Active = under 50% inhibition at 10 µM.
For `CC1=C(/C=C/C(C)=C/C=C/C(C)=C\C(=O)O)C(C)(C)CCC1` [ISOTRETINOIN], the Ki entry is “Not Active”.

For the next assay, the target named is Melanocortin receptor 4 (Homo sapiens, UniProt P32245). Format: cell membranes, Membrane. The conditions noted are these: hek293. Also: in other assays of this panel Not Active means under 50% inhibition at 10 µM.
Sequence of Melanocortin receptor 4 (P32245 whole entry): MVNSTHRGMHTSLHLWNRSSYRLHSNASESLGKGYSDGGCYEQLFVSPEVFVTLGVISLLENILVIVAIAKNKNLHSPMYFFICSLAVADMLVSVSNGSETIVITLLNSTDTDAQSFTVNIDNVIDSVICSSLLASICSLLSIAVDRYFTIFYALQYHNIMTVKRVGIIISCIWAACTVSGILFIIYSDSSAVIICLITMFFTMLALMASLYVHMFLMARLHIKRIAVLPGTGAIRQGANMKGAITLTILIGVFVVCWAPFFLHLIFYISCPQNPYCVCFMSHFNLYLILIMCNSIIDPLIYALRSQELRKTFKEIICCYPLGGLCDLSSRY
For the molecule `CC1=C(/C=C/C(C)=C/C=C/C(C)=C\C(=O)O)C(C)(C)CCC1` [ISOTRETINOIN], the IC50 entry is recorded as “Not Active”.

Another assay addresses T1, 5-hydroxytryptamine receptor 2C (Homo sapiens, UniProt P28335).
T1 sequence (P28335 whole entry): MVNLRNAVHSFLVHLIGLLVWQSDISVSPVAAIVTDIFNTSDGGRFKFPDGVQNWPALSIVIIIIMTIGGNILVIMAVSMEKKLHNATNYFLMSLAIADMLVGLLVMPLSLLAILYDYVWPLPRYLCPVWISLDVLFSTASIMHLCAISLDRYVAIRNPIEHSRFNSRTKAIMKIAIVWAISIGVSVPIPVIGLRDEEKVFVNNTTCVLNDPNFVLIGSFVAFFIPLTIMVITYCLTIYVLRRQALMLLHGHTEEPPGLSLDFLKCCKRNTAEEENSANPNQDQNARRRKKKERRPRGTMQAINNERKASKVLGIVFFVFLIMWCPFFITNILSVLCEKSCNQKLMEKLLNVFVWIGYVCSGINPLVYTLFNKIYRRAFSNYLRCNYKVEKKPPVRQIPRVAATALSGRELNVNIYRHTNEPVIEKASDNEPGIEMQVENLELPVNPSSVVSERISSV
Description: DRUGMATRIX: Serotonin (5-Hydroxytryptamine) 5-HT2C radioligand binding (ligand: [3H] Mesulergine). In kind it is cell membranes, CHO-K1, Membrane. The conditions noted are these: cho-k1; Not Active = under 50% inhibition at 10 µM.
In the case of `CC1=C(/C=C/C(C)=C/C=C/C(C)=C\C(=O)O)C(C)(C)CCC1` [ISOTRETINOIN], the IC50 entry is given as “Not Active”.

In the next assay the target is Mu-type opioid receptor (Homo sapiens, UniProt P35372). Description: DRUGMATRIX: Opiate mu (OP3, MOP) radioligand binding (ligand: [3H] Diprenorphine). In kind it is cell membranes, CHO-K1, Membrane. As to conditions: cho-k1; Not Active = under 50% inhibition at 10 µM.
Sequence of Mu-type opioid receptor (P35372 whole entry): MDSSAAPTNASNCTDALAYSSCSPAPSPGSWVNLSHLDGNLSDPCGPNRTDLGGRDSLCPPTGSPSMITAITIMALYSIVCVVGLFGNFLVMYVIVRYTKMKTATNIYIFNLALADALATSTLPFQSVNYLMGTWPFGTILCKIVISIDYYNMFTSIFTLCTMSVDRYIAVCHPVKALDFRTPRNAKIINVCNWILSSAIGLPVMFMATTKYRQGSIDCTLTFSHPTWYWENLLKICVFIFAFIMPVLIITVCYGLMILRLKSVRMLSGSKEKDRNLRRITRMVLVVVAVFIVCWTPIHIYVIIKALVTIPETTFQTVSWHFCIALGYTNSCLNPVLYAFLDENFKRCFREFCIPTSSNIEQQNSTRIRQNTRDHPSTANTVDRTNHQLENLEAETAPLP
For `CC1=C(/C=C/C(C)=C/C=C/C(C)=C\C(=O)O)C(C)(C)CCC1` [ISOTRETINOIN], the IC50 result is on record as “Not Active”.

System in the next assay: not listed separately
Kind of assay: DRUGMATRIX: Nicotinic Acetylcholine radioligand binding (ligand: [125I] Epibatidine). As to conditions: imr-32; Not Active = under 50% inhibition at 10 µM. Format: cell membranes, Membrane.
With `CC1=C(/C=C/C(C)=C/C=C/C(C)=C\C(=O)O)C(C)(C)CCC1` [ISOTRETINOIN], the IC50 result is reported as “Not Active” and the Ki entry is recorded as “Not Active”.

The next assay concerns the target T2, Alpha-1B adrenergic receptor (Rattus norvegicus, UniProt P15823).
T2 sequence (P15823 whole entry): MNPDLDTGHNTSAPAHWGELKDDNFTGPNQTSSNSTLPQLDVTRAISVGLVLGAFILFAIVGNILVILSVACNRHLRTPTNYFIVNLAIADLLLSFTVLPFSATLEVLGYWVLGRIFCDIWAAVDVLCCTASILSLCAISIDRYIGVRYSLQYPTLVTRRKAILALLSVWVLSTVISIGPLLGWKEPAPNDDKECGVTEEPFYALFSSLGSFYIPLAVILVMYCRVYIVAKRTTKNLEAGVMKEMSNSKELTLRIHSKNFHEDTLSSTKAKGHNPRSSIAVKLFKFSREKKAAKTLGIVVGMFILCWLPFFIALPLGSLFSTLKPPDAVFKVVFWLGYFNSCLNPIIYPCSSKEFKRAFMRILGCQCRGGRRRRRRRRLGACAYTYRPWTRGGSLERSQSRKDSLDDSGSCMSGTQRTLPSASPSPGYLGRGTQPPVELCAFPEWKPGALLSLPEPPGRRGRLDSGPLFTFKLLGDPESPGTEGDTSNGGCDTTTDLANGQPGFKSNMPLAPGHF
Description: DRUGMATRIX: Alpha-1B adrenergic receptor radioligand binding (ligand: prazosin). Format: cell membranes, Wistar, Liver, Membrane. As to conditions: Not Active = under 50% inhibition at 10 µM.
On to `CC1=C(/C=C/C(C)=C/C=C/C(C)=C\C(=O)O)C(C)(C)CCC1` [ISOTRETINOIN], for which the IC50 entry is recorded as “Not Active”.

System in another assay: not listed separately
Description: DRUGMATRIX: Calcium Channel Type L, Benzothiazepine radioligand binding (ligand: [3H] Diltiazem). In kind it is cell membranes, Rattus norvegicus, Wistar, Brain, Membrane. As to conditions: Not Active = under 50% inhibition at 10 µM.
For the molecule `CC1=C(/C=C/C(C)=C/C=C/C(C)=C\C(=O)O)C(C)(C)CCC1` [ISOTRETINOIN], the IC50 entry is given as “Not Active” and the Ki result is on record as “Not Active”.

System in the next assay: not listed separately
Kind of assay: DRUGMATRIX: Glutamate, Kainate radioligand binding (ligand: [3H] Kainic acid). In kind it is cell membranes, Rattus norvegicus, Wistar, Brain, Membrane. The conditions noted are these: Not Active = under 50% inhibition at 10 µM.
Consider `CC1=C(/C=C/C(C)=C/C=C/C(C)=C\C(=O)O)C(C)(C)CCC1` [ISOTRETINOIN], for which the IC50 entry was “Not Active” and the Ki result is listed as “Not Active”.

The next assay addresses T3, Endothelin-1 receptor (Homo sapiens, UniProt P25101).
T3 sequence (P25101 whole entry): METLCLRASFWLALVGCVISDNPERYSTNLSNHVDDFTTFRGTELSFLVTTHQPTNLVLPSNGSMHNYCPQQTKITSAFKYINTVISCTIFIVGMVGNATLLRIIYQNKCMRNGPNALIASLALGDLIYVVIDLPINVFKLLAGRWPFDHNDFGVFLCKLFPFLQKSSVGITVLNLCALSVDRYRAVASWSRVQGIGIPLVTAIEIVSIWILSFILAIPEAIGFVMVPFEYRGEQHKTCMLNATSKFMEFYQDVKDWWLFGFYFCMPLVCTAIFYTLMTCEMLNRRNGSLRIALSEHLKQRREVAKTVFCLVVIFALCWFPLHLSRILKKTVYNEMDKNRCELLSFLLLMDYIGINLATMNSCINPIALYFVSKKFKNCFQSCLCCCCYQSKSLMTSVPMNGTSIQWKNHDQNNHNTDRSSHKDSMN
In kind it is cell membranes, Membrane. As to conditions: cho-k1.
Consider `CC1=C(/C=C/C(C)=C/C=C/C(C)=C\C(=O)O)C(C)(C)CCC1` [ISOTRETINOIN], for which the IC50 result is listed as “Not Active”.

System in a further assay: not listed separately
Description: DRUGMATRIX: Calcium Channel Type L, Phenylalkylamine radioligand binding (ligand: [3H] (-)-Desmethoxyverapamil (D-888)). As to conditions: Not Active = under 50% inhibition at 10 µM. In kind it is cell membranes, Rattus norvegicus, Wistar, Brain, Membrane.
With `CC1=C(/C=C/C(C)=C/C=C/C(C)=C\C(=O)O)C(C)(C)CCC1` [ISOTRETINOIN], the IC50 result is on record as “Not Active” and the Ki entry is recorded as “Not Active”.

System in a further assay: not listed separately
Description: DRUGMATRIX: Serotonin (5-Hydroxytryptamine) 5-HT3 radioligand binding (ligand: [3H] GR-65630). Format: cell membranes, Membrane. The conditions noted are these: hek293; Not Active = under 50% inhibition at 10 µM.
Regarding `CC1=C(/C=C/C(C)=C/C=C/C(C)=C\C(=O)O)C(C)(C)CCC1` [ISOTRETINOIN], the IC50 result was “Not Active” and the Ki entry is on record as “Not Active”.

System in another assay: not listed separately
Kind of assay: DRUGMATRIX: ATPase, Na+/K+ enzyme inhibition (substrate: ATP). In kind it is tissue-based, Sus scrofa, Heart. As to conditions: Not Active = under 50% inhibition at 10 µM.
As to `CC1=C(/C=C/C(C)=C/C=C/C(C)=C\C(=O)O)C(C)(C)CCC1` [ISOTRETINOIN], the IC50 result was “Not Active” and the Ki entry was “Not Active”.

The target of a further assay is Sigma non-opioid intracellular receptor 1 (Homo sapiens, UniProt Q99720). Description: DRUGMATRIX: Sigma1 radioligand binding (ligand: [3H] Haloperidol). In kind it is cell membranes, Jurkat, Membrane. As to conditions: jurkat; Not Active = under 50% inhibition at 10 µM.
Sequence of Sigma non-opioid intracellular receptor 1 (Q99720 whole entry): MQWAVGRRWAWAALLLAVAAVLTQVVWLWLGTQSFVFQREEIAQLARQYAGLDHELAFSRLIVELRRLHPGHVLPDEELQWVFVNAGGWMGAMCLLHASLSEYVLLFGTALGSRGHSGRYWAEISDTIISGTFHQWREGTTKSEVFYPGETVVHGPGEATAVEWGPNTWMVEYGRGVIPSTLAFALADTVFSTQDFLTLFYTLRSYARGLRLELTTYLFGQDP
In the case of `CC1=C(/C=C/C(C)=C/C=C/C(C)=C\C(=O)O)C(C)(C)CCC1` [ISOTRETINOIN], the IC50 result is reported as “Not Active”.

The target in the next assay is Kappa-type opioid receptor (Homo sapiens, UniProt P41145). Description: DRUGMATRIX: Opiate kappa (OP2, KOP) radioligand binding (ligand: [3H] Diprenorphine). In kind it is cell membranes, HEK293, Membrane. The conditions noted are these: hek293; Not Active = under 50% inhibition at 10 µM.
Sequence of Kappa-type opioid receptor (P41145 whole entry): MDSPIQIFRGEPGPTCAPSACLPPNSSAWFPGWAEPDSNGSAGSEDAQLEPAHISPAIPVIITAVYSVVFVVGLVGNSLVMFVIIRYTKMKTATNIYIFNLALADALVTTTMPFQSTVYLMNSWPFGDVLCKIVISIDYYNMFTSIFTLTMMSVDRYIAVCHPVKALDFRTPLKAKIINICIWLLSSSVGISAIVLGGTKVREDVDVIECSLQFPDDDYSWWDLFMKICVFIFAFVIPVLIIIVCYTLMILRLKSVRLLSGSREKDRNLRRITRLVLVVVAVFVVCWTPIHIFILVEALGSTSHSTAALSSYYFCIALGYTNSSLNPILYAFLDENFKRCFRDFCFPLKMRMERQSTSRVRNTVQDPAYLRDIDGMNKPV
In the case of `CC1=C(/C=C/C(C)=C/C=C/C(C)=C\C(=O)O)C(C)(C)CCC1` [ISOTRETINOIN], the IC50 result is reported as “Not Active”.

The next assay has as its target 5-hydroxytryptamine receptor 6 (Homo sapiens, UniProt P50406). Format: cell membranes, HeLa, Membrane. The conditions noted are these: hela. Also: in other assays of this panel Not Active means under 50% inhibition at 10 µM.
As to `CC1=C(/C=C/C(C)=C/C=C/C(C)=C\C(=O)O)C(C)(C)CCC1` [ISOTRETINOIN], the IC50 result is “Not Active”.

The target of the next assay is T4, Neuropeptide Y receptor type 2 (Homo sapiens, UniProt P49146). Also: in other assays of this panel Not Active means under 50% inhibition at 10 µM.
T4 sequence (P49146 whole entry): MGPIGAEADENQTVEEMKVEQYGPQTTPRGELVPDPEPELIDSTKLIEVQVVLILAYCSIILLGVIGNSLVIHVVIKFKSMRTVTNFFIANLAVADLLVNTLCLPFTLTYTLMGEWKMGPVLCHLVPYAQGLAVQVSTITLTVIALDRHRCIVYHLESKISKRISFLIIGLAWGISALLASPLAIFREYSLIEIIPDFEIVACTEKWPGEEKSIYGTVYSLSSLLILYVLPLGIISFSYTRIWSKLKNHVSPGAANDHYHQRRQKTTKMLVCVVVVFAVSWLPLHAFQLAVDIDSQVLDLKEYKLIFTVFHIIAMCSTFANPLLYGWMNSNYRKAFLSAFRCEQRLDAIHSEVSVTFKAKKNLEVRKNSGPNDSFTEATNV
Format: cell membranes, Membrane. The conditions noted are these: kan-ts.
For `CC1=C(/C=C/C(C)=C/C=C/C(C)=C\C(=O)O)C(C)(C)CCC1` [ISOTRETINOIN], the IC50 entry is listed as “Not Active”.

The record behind these values is ChEMBL document CHEMBL1909046, “DrugMatrix in vitro pharmacology data”.
